Measurements as given in publication doi:10.1101/2025.09.24.678246 (bioRxiv, 2025).
≈ marks a conversion by molar mass, not a printed value. Where “and” joins values, the source holds several entries; their conditions need not be identical. Equal values may be shown once. Read-outs that look alike come from different tables or passages of the source.

Columns and labels:
[1] = system: E. coli; assay: MIC screening against Gram-negative pathogens: E. coli
Description: (§1) MIC measurements were based on a method previously described[6]. Overnight liquid cultures of E. coli BW, E. coli C0244, A. baumannii ATCC 17978, K. pneumoniae ATCC 43816, P. aeruginosa PA01 and E. faecium ATCC 19434 strains were inoculated with a single colony from a freshly streaked agar plate of the corresponding bacterial strain and cultured in M9 minimal medium supplemented with amino acids[6]. The bacterial culture was prepared by washing 1 mL of overnight culture in PBS pH 7.4 (x3), then diluted to OD600 = 0.5 and used to inoculate 1:1000 in M9 minimal medium with amino acids in 96-well plates. Compounds were added to 96-well plates in two-fold serial dilutions. The plates were incubated stationary at 37 °C for 18 h, then OD600 was measured. […] The assay was performed in duplicate.

[2] = in vivo; settings: female, CD-1, mouse
[3] = system: M. bovis 0AF2122; assay: microbe, parasite or virus in culture; assay type: cell-based; settings: Mycobacterium tuberculosis variant bovis
[4] = system: ESKAPE panel of pathogens; assay: MIC screening against the ESKAPE panel (summary)
Description: as §1

[5] = system: WT H37Rv; assay: Agar MIC of C48; assay type: cell-based; settings: Mycobacterium tuberculosis, 504 h
[6] = system: HT-29; settings: 48 h; for Growth compared to DMSO control (%): HT-29 cell
[7] = system: Mtb; assay: Membrane fluidity measurements (laurdan GP); assay type: cell-based, Mycobacterium tuberculosis; settings: 150 nM
[8] = system: HepG2; settings: for Growth compared to DMSO control (%): HepG2 cell
[9] = system: E. faecium ATCC 19434; assay: MIC screening: E. faecium
Description: as §1

[10] = system: A. baumannii ATCC 17978; assay: MIC screening against Gram-negative pathogens: A. baumannii
Description: as §1

[11] = system: M. abscessus; assay: MIC screening against M. abscessus (NTM); assay type: cell-based; settings: Mycobacteroides abscessus
[12] = molecular target: BioA (Mycobacterium tuberculosis, UniProt P9WQ81); assay: BioA inhibition assay (coupled BioA/BioD fluorescence displacement, IC50); assay type: biochemical
Sequence of BioA (P9WQ81 whole entry, looked up): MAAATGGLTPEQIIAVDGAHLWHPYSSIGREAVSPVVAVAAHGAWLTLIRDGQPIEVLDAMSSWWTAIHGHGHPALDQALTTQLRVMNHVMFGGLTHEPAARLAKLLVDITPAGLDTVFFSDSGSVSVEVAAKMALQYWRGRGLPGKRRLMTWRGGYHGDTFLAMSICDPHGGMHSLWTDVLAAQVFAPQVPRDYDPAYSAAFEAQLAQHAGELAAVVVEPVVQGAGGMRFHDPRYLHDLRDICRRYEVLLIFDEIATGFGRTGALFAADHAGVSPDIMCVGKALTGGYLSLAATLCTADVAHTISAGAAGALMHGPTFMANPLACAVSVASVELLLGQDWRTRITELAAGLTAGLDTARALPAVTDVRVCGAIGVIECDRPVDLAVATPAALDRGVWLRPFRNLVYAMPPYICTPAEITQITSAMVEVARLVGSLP

[13] = system: Mtb H37Rv; assay: microbe, parasite or virus in culture; assay type: cell-based, Mycobacterium tuberculosis; settings: Mycobacterium tuberculosis, H37RV; biotin-free medium
[14] = system: M. africanum; assay: MIC screening against M. africanum; assay type: cell-based; settings: Mycobacterium tuberculosis, MTBC
[15] = system: WT H37Rv; assay: Time-kill kinetics in GAST medium; assay type: cell-based, Mycobacterium tuberculosis; settings: for OD580 of C48 kill kinetics: 10µM C48, GAST medium
[16] = system: Mtb H37Rv; assay: C48 biotin deficient TB efficacy study; assay type: in vivo, BALB/c mice; settings: for bacterial burden per mouse, Fig. 5C / bacterial burden per mouse, Fig. 5D (second organ, not given): 200mg/kg
[17] = system: P. aeruginosa PA01; assay: MIC screening against Gram-negative pathogens: P. aeruginosa
Description: as §1

[18] = 200 mg/kg p.o. once daily, three weeks, biotin-deficient BALB/c
[19] = day 7 (values identical to Control: baseline)

SMILES: O=C1CCc2cc(N3CCN(C(=O)c4ccc(F)c(Br)c4)CC3)ncc21 [C48]
- MIC ([1]; E. coli BW): inactive
- MIC ([1]; E. coli C0244): inactive
- half-life [2]: 54.6 min
- Vd ([2]; iv): 0.26 L/kg
- clearance ([2]; iv): 3.2 mL/min/kg
- half-life ([2]; iv): 54.6 min
- AUC(0-inf) ([2]; po, 25 mg/kg): 146 µg·h/mL
- bioavailability ([2]; po, 25 mg/kg): > 100%
- MIC [3]: 0.0313 µM (≈ 0.0131 µg/mL)
- activity against the entire ESKAPE panel [4]: inactive
- MIC [5]: 0.8 µM
- Growth compared to DMSO control (%) ([6]; 3.13 μM): 103.339% and 102.14% and 102.153%
- Growth compared to DMSO control (%) ([6]; 6.25 μM): 105.34% and 100.609% and 100.571%
- Growth compared to DMSO control (%) ([6]; 12.5 μM): 103.832% and 99.2439% and 99.2304%
- Growth compared to DMSO control (%) ([6]; 25 μM): 102.371% and 98.4085% and 97.2044%
- Growth compared to DMSO control (%) ([6]; 50 μM): 101.665% and 97.1295% and 96.4305%
- Growth compared to DMSO control (%) ([6]; 100 μM): 100.396% and 97.8669% and 97.7498%
- cytotoxicity toward HT-29 ([6]; concentrations up to 100 μM): no cytotoxicity
- Laurdan GP ([7]; +Biotin): 0.2273 and 0.2244 and 0.2183
- Laurdan GP ([7]; -Biotin): 0.2797 and 0.2817 and 0.2774
- laurdan GP change ([7]; without biotin): increase
- therapeutic index (IC50/MIC50) ([8]; HepG2 and HT-29 versus Mtb): greater than 10,000
- Growth compared to DMSO control (%) ([8]; 3.13 μM, 48 h): 106.559% and 101.297% and 106.056%
- Growth compared to DMSO control (%) ([8]; 6.25 μM, 48 h): 105.369% and 100.246%
- Growth compared to DMSO control (%) ([8]; 12.5 μM, 48 h): 104.304% and 99.8833%
- Growth compared to DMSO control (%) ([8]; 25 μM, 48 h): 105.369% and 101.144%
- Growth compared to DMSO control (%) ([8]; 50 μM, 48 h): 106.056% and 100.625% and 106.559%
- Growth compared to DMSO control (%) ([8]; 100 μM, 48 h): 110.419% and 100.81% and 101.702%
- cytotoxicity toward HepG2 ([8]; concentrations up to 100 μM, 48 h): no cytotoxicity
- MIC [9]: inactive
- MIC [10]: inactive
- MIC ([11]; ATCC19977, read-out: MIC (50% growth inhibition), M. abscessus (ATCC19977), reference strain): 0.5 µM (≈ 0.209 µg/mL)
- MIC ([11]; M. abscessus, NTM, footnote mark d, read-out: MIC): 0.5 to 1 µM (≈ 0.209 to 0.418 µg/mL)
- MIC ([11]; read-out: MIC (50% growth inhibition), M. abscessus BWH-B, clinical strain): 0.5 µM (≈ 0.209 µg/mL)
- MIC ([11]; read-out: MIC (50% growth inhibition), M. abscessus BWH-D, clinical strain): 0.5 µM (≈ 0.209 µg/mL)
- MIC ([11]; read-out: MIC (50% growth inhibition), M. abscessus T35, clinical strain): 0.5 µM (≈ 0.209 µg/mL)
- MIC ([11]; read-out: MIC (50% growth inhibition), M. abscessus T37, clinical strain): 1 µM (≈ 0.418 µg/mL)
- MIC ([11]; read-out: MIC (50% growth inhibition), M. abscessus T38, clinical strain): 1 µM (≈ 0.418 µg/mL)
- MIC ([11]; read-out: MIC (50% growth inhibition), M. abscessus T49, clinical strain): 0.5 µM (≈ 0.209 µg/mL)
- MIC ([11]; read-out: MICs against nontuberculous mycobacteria (NTM)): 0.5 to 1 µM (≈ 0.209 to 0.418 µg/mL)
- plasma concentration, dose escalation (50 mg/kg p.o. for 4 days, 1 hr): 61800 and 52800 and 56400
- plasma concentration, dose escalation (50 mg/kg p.o. for 4 days, 24 hr): 12.4 and 12.1 and 9.65
- plasma concentration, dose escalation (100 mg/kg p.o. for 4 days, 0 hr): 14 and 10 and 13
- plasma concentration, dose escalation (100 mg/kg p.o. for 4 days, 1 hr): 112000 and 72300 and 72800
- plasma concentration, dose escalation (200 mg/kg p.o. for 4 days, 0 hr): 16 and 17 and 26
- plasma concentration, dose escalation (200 mg/kg p.o. for 4 days, 1 hr): 74500 and 50900 and 86400
- plasma concentration, dose escalation (200 mg/kg p.o. for 4 days, 5 hr): 57700 and 39600 and 50300
- tolerability in dose escalation (p.o. 50-200 mg/kg for 4 days): well tolerated
- oral absorption in dose escalation (p.o. up to 200 mg/kg): linear oral absorption
- IC50 ([12]; 50 nM BioA): 34 nM
- activity ([12]; C48 2.60123 nM, 50 nM BioA): 100% and 105%
- activity at 0.00260123 µM ([12]; C48 2.60123 nM, 50 nM BioA): 99.5%
- activity ([12]; C48 3.90184 nM, 50 nM BioA): 98% and 101%
- activity at 0.00390184 µM ([12]; C48 3.90184 nM, 50 nM BioA): 95.4%
- activity ([12]; C48 5.85277 nM, 50 nM BioA): 98.6% and 97%
- activity at 0.00585277 µM ([12]; C48 5.85277 nM, 50 nM BioA): 96.2%
- activity ([12]; C48 8.77915 nM, 50 nM BioA): 94.6% and 97.2%
- activity at 0.00877915 µM ([12]; C48 8.77915 nM, 50 nM BioA): 94%
- activity ([12]; C48 13.1687 nM, 50 nM BioA): 90.9% and 91.4%
- activity at 0.0131687 µM ([12]; C48 13.1687 nM, 50 nM BioA): 90.4%
- activity ([12]; C48 19.7531 nM, 50 nM BioA): 81.3% and 85.6%
- activity at 0.0197531 µM ([12]; C48 19.7531 nM, 50 nM BioA): 80.3%
- activity ([12]; C48 29.6296 nM, 50 nM BioA): 64.4% and 66.5%
- activity at 0.0296296 µM ([12]; C48 29.6296 nM, 50 nM BioA): 63.7%
- activity ([12]; C48 44.4444 nM, 50 nM BioA): 19.1% and 25.7%
- activity at 0.0444444 µM ([12]; C48 44.4444 nM, 50 nM BioA): 20.9%
- activity ([12]; C48 66.6667 nM, 50 nM BioA): 0.926% and 1.11%
- activity at 0.0666667 µM ([12]; C48 66.6667 nM, 50 nM BioA): 1.35%
- remaining activity at 0.00114183 µM ([12]; read-out: Vi/Vo %): 103%
- remaining activity at 0.00171274 µM ([12]; read-out: Vi/Vo %): 106%
- remaining activity at 0.00256912 µM ([12]; read-out: Vi/Vo %): 106%
- remaining activity at 0.00385367 µM ([12]; read-out: Vi/Vo %): 97%
- remaining activity at 0.00578051 µM ([12]; read-out: Vi/Vo %): 96.5%
- remaining activity at 0.00867076 µM ([12]; read-out: Vi/Vo %): 89.3%
- remaining activity at 0.0130061 µM ([12]; read-out: Vi/Vo %): 88.9%
- remaining activity at 0.0195092 µM ([12]; read-out: Vi/Vo %): 78.8%
- remaining activity at 0.0292638 µM ([12]; read-out: Vi/Vo %): 60.8%
- remaining activity at 0.0438957 µM ([12]; read-out: Vi/Vo %): 42%
- remaining activity at 0.0658436 µM ([12]; read-out: Vi/Vo %): 0%
- remaining activity at 0.0987654 µM ([12]; read-out: Vi/Vo %): 0%
- remaining activity at 0.148148 µM ([12]; read-out: Vi/Vo %): 0%
- remaining activity at 0.222222 µM ([12]; read-out: Vi/Vo %): 0%
- remaining activity at 0.333333 µM ([12]; read-out: Vi/Vo %): 0%
- MIC50 [13]: 0.093 µM (≈ 0.0389 µg/mL)
- MIC [14]: 0.012 µM (≈ 0.00502 µg/mL)
- rate of CFU decline ([15]; 10 μM, biotin-free medium, after about three doublings): one log10 CFU per week
- OD580 of C48 kill kinetics ([15]; day 0): 0.001
- OD580 of C48 kill kinetics ([15]; day 2): 0.004
- OD580 of C48 kill kinetics ([15]; day 4): 0.008
- OD580 of C48 kill kinetics ([15]; day 8): 0.01
- OD580 of C48 kill kinetics ([15]; day 11): 0.016
- OD580 of C48 kill kinetics ([15]; day 14): 0.012
- OD580 of C48 kill kinetics ([15]; day 16): 0.012
- OD580 of C48 kill kinetics ([15]; day 18): 0.012
- OD580 of C48 kill kinetics ([15]; day 21): 0.01
- OD580 of C48 kill kinetics ([15]; day 23): 0.01
- OD580 of C48 kill kinetics ([15]; day 25): 0.01
- OD580 of C48 kill kinetics ([15]; day 28): 0.008
- OD580 of C48 kill kinetics ([15]; day 32): 0.008
- OD580 of C48 kill kinetics ([15]; day 35): 0.008
- OD580 of C48 kill kinetics ([15]; day 39): 0.008
- OD580 of C48 kill kinetics ([15]; day 42): 0.008
- OD580 of C48 kill kinetics ([15]; day 46): 0.008
- OD580 of C48 kill kinetics ([15]; day 49): 0.008
- OD580 of C48 kill kinetics ([15]; day 53): 0.008
- OD580 of C48 kill kinetics ([15]; day 56): 0.008
- OD580 of C48 kill kinetics ([15]; day 60): 0.008
- OD580 of C48 kill kinetics ([15]; day 63): 0.008
- OD580 of C48 kill kinetics ([15]; day 67): 0.008
- reduction of bacterial burden in lungs [16, 18]: 1.0 log10 CFU
- reduction of bacterial burden in spleen [16, 18]: 2.1 log10 CFU
- bacterial burden per mouse, Fig. 5C [16, 19]: 700 and 200 and 360 and 1090 and 400 and 320
- bacterial burden per mouse, Fig. 5D (second organ, not given) [16, 19]: 1
- bacterial burden per mouse, Fig. 5C ([16]; day 21): 88000 and 30000 and 12000 and 11000 and 133000 and 32000
- bacterial burden per mouse, Fig. 5D (second organ, not given) ([16]; day 21): 90 and 1 (3×) and 20 and 70
- bacterial burden per mouse, Fig. 5C ([16]; day 28): 9700 and 74000 and 49000 and 29000 and 48000 (2×) and 36000
- bacterial burden per mouse, Fig. 5D (second organ, not given) ([16]; day 28): 20 and 6700 and 30 and 170 and 790 and 10 and 180
- MIC [17]: inactive
